The values that follow come from ChEMBL document CHEMBL1641422, “Bitriazolyl acyclonucleosides synthesized via Huisgen reaction using internal alkynes show antiviral activity against tobacco mosaic virus” (2011).

The structures appear in SMILES notation.

The test system of this assay is Tobacco mosaic virus. Kind of assay: Antiviral activity against Tobacco mosaic virus after 72 hrs by half-leaf juice rubbing method. More on the design: concentration or dose not given beside the values. Type of assay: functional.
In turn, `NC(=O)c1nc(-c2nn[nH]c2-c2ccccc2)n(COCCO)n1` gave an Activity of 36%.

`Cc1ccc(-c2[nH]nnc2-c2nc(C(N)=O)nn2COCCO)cc1`: the Activity is given as 28%.

Turning to `COc1ccc(-c2[nH]nnc2-c2nc(C(N)=O)nn2COCCO)cc1`, the Activity is 39%. The same measure for `CCCCc1ccc(-c2[nH]nnc2-c2nc(C(N)=O)nn2COCCO)cc1`: 22%; for `CCCCCc1ccc(-c2[nH]nnc2-c2nc(C(N)=O)nn2COCCO)cc1`: 44%. The result for `NC(=O)c1nc(-c2nn[nH]c2-c2ccc(F)cc2)n(COCCO)n1` reads 29%. The result for `NC(=O)c1nc(-c2nn[nH]c2-c2ccccc2C(F)(F)F)n(COCCO)n1` reads 17%; that for `NC(=O)c1nc(-c2nn[nH]c2-c2cccc(C(F)(F)F)c2)n(COCCO)n1`, 16%; that for `NC(=O)c1nc(-c2nn[nH]c2-c2ccc(C(F)(F)F)cc2)n(COCCO)n1`, 30%. Regarding `NC(=O)c1nc(-c2nn[nH]c2-c2cccs2)n(COCCO)n1`, the Activity was found to be 14%. The same measure for `CCCCCc1[nH]nnc1-c1nc(C(N)=O)nn1COCCO`: 34%; for `NC(=O)c1nc(-c2nn[nH]c2C2=CCCCC2)n(COCCO)n1`: 23%. Turning to `NC(=O)c1ncn([C@@H]2O[C@H](CO)[C@@H](O)[C@H]2O)n1` [RIBAVIRIN], the Activity turned out to be 39%.
